# In patent publication US4800199A, “3-[2-thiazoloamino]-8-oxo-7-substituted-5-thia-1-a zabicyclo-[4.2.0]oct-2-ene-2-carboxylic acid and salts thereof and diphenylmethyl esters thereof” (American Cyanamid Company, priority 1986, dated 1989):
# Legend:
# Assay in all cases: In vitro antibacterial activity, Mueller-Hinton agar dilution
# Format in all cases: cell-based
# [1] = test system: Klebsiella pneumoniae AD; settings: read-out: Minimal Inhibitory Concentration
# Description: (§1) The results of this test on representative compounds of this invention appear in Table I.
# [2] = test system: Bacillus subtilis ATCC 6633; settings: ATCC6633, read-out: Minimal Inhibitory Concentration
# Description: as §1
# [3] = test system: Enterococcus OSU 75-1; settings: OSU751, read-out: Minimal Inhibitory Concentration
# Description: as §1
# [4] = test system: Streptococcus mutans ATCC 27352-1; settings: ATCC27352, read-out: Minimal Inhibitory Concentration
# Description: as §1
# [5] = test system: Salmonella QHC 77-3; settings: QHC773, read-out: Minimal Inhibitory Concentration
# Description: as §1
# [6] = test system: Pseudomonas aeruginosa 12-4-4; settings: 1244, read-out: Minimal Inhibitory Concentration
# Description: as §1
# [7] = test system: Mycobacterium smegmatis ATCC 607; settings: Mycolicibacterium smegmatis, ATCC607, read-out: Minimal Inhibitory Concentration
# Description: as §1
# [8] = test system: Escherichia coli 311; settings: read-out: Minimal Inhibitory Concentration
# Description: as §1
# [9] = test system: Micrococcus lutea PC 1001; settings: PC1001, read-out: Minimal Inhibitory Concentration
# Description: as §1
# [10] = test system: Saccharomyces Y 15; settings: Y15, read-out: Minimal Inhibitory Concentration
# Description: as §1
# [11] = test system: Acinetobacter STFD 79-17; settings: STFD7917, read-out: Minimal Inhibitory Concentration
# Description: as §1
# [12] = test system: Pseudomonas aeruginosa ATCC 27853; settings: ATCC27853, read-out: Minimal Inhibitory Concentration
# Description: as §1
# [13] = test system: Proteus morganii K79-25; settings: Morganella morganii, K7925, read-out: Minimal Inhibitory Concentration
# Description: as §1
# [14] = test system: Staphylococcus epidermidis ATCC 12228; settings: ATCC12228, read-out: Minimal Inhibitory Concentration
# Description: as §1
# [15] = test system: Staphylococcus aureus LL No. 45; settings: LLNO.45, read-out: Minimal Inhibitory Concentration
# Description: as §1
# [16] = test system: Staphylococcus aureus ATCC 25923; settings: ATCC25923, read-out: Minimal Inhibitory Concentration
# Description: as §1
# [17] = test system: Streptococcus mutans BHI (b); settings: read-out: Minimal Inhibitory Concentration
# Description: as §1
# [18] = test system: Staphylococcus epidermidis CMC 83-56; settings: CMC8356, read-out: Minimal Inhibitory Concentration
# Description: as §1
# [19] = test system: Staphylococcus aureus LL No. 14; settings: LLNO.14, read-out: Minimal Inhibitory Concentration
# Description: as §1
# [20] = test system: Bacillus cereus LL No. 4; settings: LLNO.4, read-out: Minimal Inhibitory Concentration
# Description: as §1
# [21] = test system: Staphylococcus aureus LL No. 27; settings: LLNO.27, read-out: Minimal Inhibitory Concentration
# Description: as §1
# [22] = test system: Candida albicans CA 300; settings: CA300, read-out: Minimal Inhibitory Concentration
# Description: as §1
# [23] = test system: Citrobacter freundii K81-28; settings: K8128, read-out: Minimal Inhibitory Concentration
# Description: as §1
# [24] = test system: Escherichia coli ATCC 25922; settings: ATCC25922, read-out: Minimal Inhibitory Concentration
# Description: as §1
# [25] = test system: Serratia Tul 78-15; settings: TUL7815, read-out: Minimal Inhibitory Concentration
# Description: as §1
# [26] = test system: Streptococcus sanguis G-9B (a); settings: read-out: Minimal Inhibitory Concentration
# Description: as §1
# [27] = test system: Enterococcus SM 77-15; settings: SM7715, read-out: Minimal Inhibitory Concentration
# Description: as §1
# [28] = test system: Staphylococcus aureus Smith; settings: read-out: Minimal Inhibitory Concentration
# Description: as §1
# [29] = test system: Enterobacter cloacae K79-16; settings: K7916, read-out: Minimal Inhibitory Concentration
# Description: as §1
# [30] = test system: Streptococcus faecalis ATCC 29212; settings: Enterococcus faecalis, ATCC29212, read-out: Minimal Inhibitory Concentration
# Description: as §1
SMILES,MIC [1] [µg/mL],MIC [2] [µg/mL],MIC [3] [µg/mL],MIC [4] [µg/mL],MIC [5] [µg/mL],MIC [6] [µg/mL],MIC [7] [µg/mL],MIC [8] [µg/mL],MIC [9] [µg/mL],MIC [10] [µg/mL],MIC [11] [µg/mL],MIC [12] [µg/mL],MIC [13] [µg/mL],MIC [14] [µg/mL],MIC [15] [µg/mL],MIC [16] [µg/mL],MIC [17] [µg/mL],MIC [18] [µg/mL],MIC [19] [µg/mL],MIC [20] [µg/mL],further results
CCOC(=O)c1csc(N[C@@H]2C(=O)N3C(C(=O)O)=C(COC(C)=O)CS[C@H]23)n1 [Example 2],512,4,128,≤ 0.25,> 512,> 512,128,512,4,128,> 512,> 512,> 512,0.5,1,1,≤ 0.25,0.5,1,64,MIC [21]: 4 µg/mL; MIC [22]: > 512 µg/mL; MIC [23]: 512 µg/mL; MIC [24]: > 512 µg/mL; MIC [25]: > 512 µg/mL; MIC [26]: 4 µg/mL; MIC [27]: 128 µg/mL; MIC [28]: 1 µg/mL; MIC [29]: > 512 µg/mL; MIC [30]: 128 µg/mL
"CC(=O)OCC1=C(C(=O)O)N2C(=O)[C@@H](Nc3nc(-c4ccccc4)cs3)[C@H]2SC1 [Example 3, (6R-trans)-3-[(Acetyloxy)methyl]-8-oxo-7-[(4-phenyl-2-thiazolyl)amino]-5-thia-1-azabicyclo[4.2.0]oct-2-ene-2-carboxylic acid]",> 512,8,256,8,> 512,> 512,256,> 512,8,256,> 512,> 512,> 512,16,4,8,0.5,8,4,128,MIC [21]: 16 µg/mL; MIC [22]: > 512 µg/mL; MIC [23]: > 512 µg/mL; MIC [24]: > 512 µg/mL; MIC [25]: > 512 µg/mL; MIC [26]: 1 µg/mL; MIC [27]: 256 µg/mL; MIC [28]: 8 µg/mL; MIC [29]: > 512 µg/mL; MIC [30]: 256 µg/mL
